This is an account of results in patent publication US20220339260A1, “METHOD FOR PRODUCING INSULIN-PRODUCING CELL USING DIHYDROINDOLIZINONE DERIVATIVES” (TOKYO INSTITUTE OF TECHNOLOGY, priority 2019, published 2022).

The subject of this test is SK7 mouse ES cells. Nature of the test: Screening for β cell differentiation enhancer using SK7 mouse ES cells (Pdx1-GFP). Type of test: cell-based. The procedure:
The SK7 mouse ES cells were differentiated into β cells basically according to the previous report (Nakashima et al., 2015). Briefly, the cells were seeded at 5,000 cells per well in CellBIND 384-well (CORNING, 3770) cell culture plate or at 20,000 cells per well in a 96-well plate (Sigma) coated with 0.2% gelatin. Then, the cells were cultured in medium 1 from days 1 to 5. Medium 1 consisted of DMEM (high glucose) (Life Technologies, 11965092) supplemented with 0.1 mM NEAA (Gibco, 11140-50), 2 mM L-glutamine (Nacalai, 16948-04), 100 U/mL penicillin-streptomycin (Nacalai, 26252-94), 0.01 mM β-mercaptoethanol (Sigma), 1% insulin-transferrin-selenium supplement (ITS: Life Technologies, 41400045), 0.25% Albumax (Thermo Fisher, 11020021), and 10 ng/mL recombinant human activin-A (R&D Systems, 338-AC). Subsequently, the cells were cultured for 1 day in medium 2 which consisted of medium 1 supplemented with 10 μM retinoic acid (Stemgent, 04-0021). On day 6, the medium was replaced with medium 3, and the culture was continued until day 12 in order to induce differentiation into β cells. Medium 3 consisted of DMEM (low glucose) (Life Technologies, 11885084) supplemented with 0.1 mM NEAA, 2 mM L-glutamine, 100 U/mL penicillin-streptomycin, 0.1 mM β-mercaptoethanol, 1% ITS, 0.25% Albumax, and 3 mM nicotinamide (Sigma-Aldrich, N0636-500G). A test compound was added on day 8, and the cells were fixed in 4% paraformaldehyde for analysis using a high-content imager.
A chemical library consisting of about 55,000 compounds was screened for a substance that induced β cell differentiation. […] Fluorescence images were quantified using Operetta high-content imaging system and Harmony image analysis software (PerkinElmer, Germany). The nuclei were identified by DAPI staining, and the positivity of antibody staining was determined from the fluorescence intensity of a cytoplasmic region surrounding the nucleus. The number of cells positive to both insulin and GFP was counted and normalized with the total number of DAPI-positive cells or a positive area. A median of quadruple data was calculated, and screening hits were defined as states in which the number of insulin- and GFP-positive cells was increased as compared with a DMSO control. […] The activity of the selected candidate compounds was further analyzed with Toe human iPS cell assay system in order to select a hit compound having effectiveness for both differentiation into mouse β cells and differentiation into human β cells. A compound was added as described above, and its effectiveness was evaluated from a mRNA expression level by q-PCR in triplet experiments. […]

For the molecule `O=C1CCC(C(=O)Nc2ncc(-c3ccccc3)s2)n2cccc21` (stereo not drawn) [Synthesis Example 1, 8-Oxo-N-(5-phenylthiazol-2-yl)-6,7-dihydro-5H-indolizine-5-carboxamide], where the note is “K-1 in combination with γ-secretase inhibitor LY411575”, the “number of Pdx1-GFP+Ins+ double-positive cells” value was “further enhanced increase”. Besides, where the note is “dose-dependent, compound added on day 8”, the “ratio of Pdx1-GFP+insulin+ double-positive cells” value is “increased”. For the same molecule, the “expression of insulin 1” value (dose-dependent, mRNA normalized with Hprt1) is “increased”.
